The target in test [1] is T1, PROBABLE TRANSMEMBRANE CARBONIC ANHYDRASE (CARBONATE DEHYDRATASE) (CARBONIC DEHYDRATASE) (Mycobacterium tuberculosis, UniProt P96878).
T1 sequence (P96878 whole entry): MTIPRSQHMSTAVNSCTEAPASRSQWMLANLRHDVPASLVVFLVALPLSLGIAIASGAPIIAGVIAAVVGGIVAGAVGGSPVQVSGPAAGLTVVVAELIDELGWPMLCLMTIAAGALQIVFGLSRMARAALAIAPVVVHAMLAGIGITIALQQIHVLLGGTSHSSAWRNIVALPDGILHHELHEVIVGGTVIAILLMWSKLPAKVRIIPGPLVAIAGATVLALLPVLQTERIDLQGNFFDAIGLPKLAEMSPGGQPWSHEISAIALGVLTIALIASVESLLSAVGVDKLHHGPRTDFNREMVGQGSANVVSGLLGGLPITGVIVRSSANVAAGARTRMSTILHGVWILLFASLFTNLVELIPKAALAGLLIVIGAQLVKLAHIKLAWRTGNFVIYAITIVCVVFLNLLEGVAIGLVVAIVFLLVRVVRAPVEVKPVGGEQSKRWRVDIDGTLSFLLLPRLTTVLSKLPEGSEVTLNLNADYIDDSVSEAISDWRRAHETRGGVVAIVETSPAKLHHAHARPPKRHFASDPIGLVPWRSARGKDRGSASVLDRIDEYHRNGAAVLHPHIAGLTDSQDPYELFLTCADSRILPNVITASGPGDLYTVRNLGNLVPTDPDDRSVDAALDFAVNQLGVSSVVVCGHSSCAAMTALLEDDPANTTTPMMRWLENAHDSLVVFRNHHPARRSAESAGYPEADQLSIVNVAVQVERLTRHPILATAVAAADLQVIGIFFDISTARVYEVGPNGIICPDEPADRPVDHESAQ
Description: Inhibition of Mycobacterium tuberculosis recombinant carbonic anhydrase Rv3273 by stopped flow CO2 hydration assay

Test [2] deals with T2, Beta-carbonic anhydrase 1 (Mycobacterium tuberculosis, UniProt P9WPJ7).
T2 sequence (P9WPJ7 whole entry): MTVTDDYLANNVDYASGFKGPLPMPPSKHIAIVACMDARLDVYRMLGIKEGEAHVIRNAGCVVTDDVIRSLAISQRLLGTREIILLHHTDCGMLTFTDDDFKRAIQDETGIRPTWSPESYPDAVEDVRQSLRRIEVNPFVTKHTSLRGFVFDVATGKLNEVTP

The target of a further test is Carbonic anhydrase 2 (Homo sapiens, UniProt P00918).

Our source for the Ki values is ChEMBL document CHEMBL1155354, “Carbonic anhydrase inhibitors. Inhibition of the Rv1284 and Rv3273 beta-carbonic anhydrases from Mycobacterium tuberculosis with diazenylbenzenesulfonamides” (Bioorg Med Chem Lett, 2009).

Description for Carbonic anhydrase 2: Inhibition of human cloned full length carbonic anhydrase 2 by stopped flow CO2 hydration assay

For `Nc1ccc(S(=O)(=O)NCc2ccc(S(N)(=O)=O)cc2)cc1`, in test [1], the affinity, expressed as Ki, was 2.21 µM. `Nc1ccc(/N=N/c2cccc(S(N)(=O)=O)c2)cc1`: the values for the inhibitory constant (Ki) in test [1] and in test [2] were 8.68 µM and 7 µM, respectively. Taken in the same sequence, the figures for `CC(=O)Nc1cc2c(O)c(/N=N/c3ccc(S(N)(=O)=O)cc3)c(S(=O)(=O)O)cc2cc1S(=O)(=O)O` [PRONTOCIL] were 0.148 µM and 0.126 µM. As for `Nc1ccc(/N=N/c2ccc(S(N)(=O)=O)cc2)cc1`, the Ki (as a rule, a dissociation constant, usually derived from enzyme kinetics or from competition with a known ligand) in test [1] is 8.78 µM; in test [2], 7.2 µM. With `Nc1ccc(S(=O)(=O)NCCc2ccc(S(N)(=O)=O)cc2)cc1`, the Ki in test [1] stood at 0.17 µM. As to `NS(=O)(=O)c1ccc(/N=N/c2ccc(NCS(=O)(=O)O)cc2)cc1`, the Ki stood at 8.9 µM in test [1] and 6.78 µM in test [2]. On the same counts, the results for `O=S(=O)(O)CNc1ccccc1` [SODIUM PHENYLAMINOMETHANESULFONATE] are 8.9 µM and 8.67 µM. On to `CN(CS(=O)(=O)O)c1ccc(/N=N/c2ccc(S(N)(=O)=O)cc2)cc1`, for which the Ki was found to be 9.03 µM in test [1] and 8.71 µM in test [2]. The compound `NCc1ccc(S(N)(=O)=O)cc1` [MAFENIDE] showed a Ki in test [1] of 7.33 µM. Consider `NS(=O)(=O)c1cccc(/N=N/c2ccc(NCS(=O)(=O)O)cc2)c1`, for which the inhibitory constant (Ki) in test [1] is 9.45 µM; in test [2], 7.51 µM. On the same counts, the results for `CN(C)c1ccc(/N=N/c2cccc(S(N)(=O)=O)c2)cc1` are 9.36 µM and 7.54 µM.

For the compound `CCN[C@H]1CN(CCCOC)S(=O)(=O)c2sc(S(N)(=O)=O)cc21` [BRINZOLAMIDE], the Ki in test [1] came to 0.201 µM.

`CNc1ccc(/N=N/c2ccc(S(N)(=O)=O)cc2)cc1`: the Ki in test [1] is 9.18 µM; on Carbonic anhydrase 2, 0.093 µM; in test [2], 7.69 µM. `CN(C)c1ccc(/N=N/c2ccc(S(N)(=O)=O)cc2)cc1`: the Ki in test [1] turned out to be 30.7 µM; at Carbonic anhydrase 2, 0.638 µM; in test [2], 6.86 µM. For the compound `NS(=O)(=O)c1cccc(/N=N/c2ccc(O)cc2)c1`, the figures for the Ki (in test [1]; on Carbonic anhydrase 2; in test [2]) were 9.23 µM, 0.106 µM and 8.97 µM, respectively. `NS(=O)(=O)c1ccc(/N=N/c2ccc(O)cc2)cc1`: the results for the inhibition constant (Ki) in test [1] and in test [2] were 12.4 µM and 9.27 µM, respectively. Turning to `CN(CS(=O)(=O)O)c1ccc(/N=N/c2cccc(S(N)(=O)=O)c2)cc1`, the Ki in test [1] amounted to 7.4 µM; in test [2], 63 µM. Regarding `CN(CS(=O)(=O)O)c1ccccc1` [SODIUM(METHYL(PHENYL)AMINO)METHANESULFONATE], the inhibition constant (Ki) in test [1] worked out at 9.11 µM; in test [2] it was 7.86 µM.
